Reference: patent US20250228833A1, “METHODS AND COMPOSITIONS FOR TREATING AGITATION” (BioXcel Therapeutics, Inc., priority 2021, published 2025)
Where a name gives a salt, the structure may show the parent alone.

Columns and labels:
[1] = test system: spontaneous locomotor activity; assay: Open field test (Example 7); conditions: 60 min post dose, 30 minutes tracking, vs vehicle
Procedure: Test system: Mice Strain/Gender: Swiss albino/Male Study: Open field test
Open field test: The spontaneous locomotor activity in terms of total distance traveled is measured in open field test. Comparatively lower distance traveled would indicate either less motor activity or sedation.
Mice were brought to the laboratory and allowed to acclimatize to the environment for at least 7 days. The open field test was done in lighting conditions of 40 lux light. The mice were dosed as per the allocation. After a post dose interval of 60 minutes, 4 mice from a group were placed in the open field and the movement was tracked for a period of 30 minutes. Once the trial was over the mice were removed from the open field and the arena was cleaned. Following this, next set of 4 mice were placed in the arena and tracked.
The distance travelled for a period of 30 minutes was analyzed in bins of 5 minutes and was compared with that of the vehicle group using one-way ANOVA followed by Dunnett's test. All statistical analysis were performed using Graph pad prism software package (Version 7 or Higher) and p value below 0.05 was considered as significant.

[2] = test system: yohimbine-induced noradrenergic hyperarousal; assay: Elevated plus maze, latrepirdine at different doses in yohimbine-induced hyperarousal (Example 3); format: in vivo, Wistar rats; conditions: for Percent increase as referred to the Vehicle level, Entries / Percent increase as referred to the Vehicle level, Time: yohimbine 2.5 mg/kg i.p. 30 min, 60 min
Procedure: Drug preparation: All compounds/drugs were prepared in normal saline (0.9% NaCl).
Yohimbine was prepared at a solution of 2.5 mg/mL which when injected i.p. at a dosage volume of 1 mL/kg results in a dose of 2.5 mg/kg. Diazepam was prepared at a solution of 1 mg/mL which when injected i.p. at a dosage volume of 1 mL/kg results in a dose of 1 mg/kg. Latrepirdine dihydrochloride hydrate was prepared at a solution of 7.5, 2.5, 0.75 and 0.25 mg/mL which when injected i.m. at a volume of 100 μL for a rat of 250 g results in doses of 3; 1; 0.3 and 0.1 mg/kg; respectively. Latrepirdine dihydrochloride hydrate was also prepared at […] which when administrated i.p. at a dosage volume of 1 mL/kg results in a dose of 3 mg/kg.
Male Wistar rats (Janvier; Le Genest St Isle-France) were used for the study. They were purchased at a body weight of 150 g and reached a body weight of about 220 g at the time of use. They were group-housed (3-4 rats per cage) and maintained in a room with controlled temperature (21-22° C.) and a reversed light-dark cycle (12 h/12 h; lights on: 17:30-05:30; lights off: 05:30-17:30) with food and water available ad libitum.
Rats were distributed in 9 different experimental groups with 12 rats per group as illustrated in Table 6. Each experimental group was also coded so that the experimenter became unaware of the true experimental group at the time EPM trial.
The rats were randomly assigned to one of the different experimental groups. Each animal was identified by its group name, cage number, series (day) of experiment, and a number (from 1 to 9) written with permanent ink on its tail. They were handled by an experimenter for about 3 min each day during 1 week prior to the day of EPM trial. The apparatus was a PVC maze covered with Plexiglas and subdivided into four equal exploratory arms (40×10 cm), which were all interconnected by a small platform (10×10 cm). The apparatus was placed 65 cm above the floor. Two arms were opened, and two others were closed with wall (high: 10 cm). After compound administration, rat was placed on the platform opposite a closed arm. The number of entries and the time spent in each arm were recorded during a 5 min period. The animal was considered as entered in an arm when it placed its four paws in the arm. The apparatus was cleaned between each animal using alcohol (70%). Urine and feces were removed from the maze. During the trials, animal handling and the visibility of the operator were minimized as much as possible.
Analysis of variance (ANOVA) was performed on the result data. Fisher's PLSD was used for pairwise comparisons and p value≤0.05 were considered significant. For the sake of comparison, the change in the EPM performance of Yohimbine rats was expressed as a percentage of increase/decrease as referred to the level recorded in the vehicle (set as 0% change). Therefore, for each of the EPM parameter, the following formula was used: [performance of a given group-performance of vehicle group]/[performance of vehicle group]×100

[3] = test system: yohimbine-induced noradrenergic mediated hyperarousal; assay: Elevated plus maze, yohimbine-induced hyperarousal (Example 2); format: in vivo, Wistar rats; conditions: for exploration time (time spent in the open arms) / number of open arm entries: 60 min prior to EPM, yohimbine 2.5 mg/kg i.p. 30 min prior, 5 min period; for reduction of noradrenergic mediated hyperarousal: 10 mg/kg i.m. pretreatment, yohimbine 2.5 mg/kg i.p.
Source text: Background: Yohimbine is an alpha 2-adrenergic receptor antagonist reported to trigger panic attacks in healthy volunteers and to exacerbate symptoms in patients with panic disorder (Charney et al., 1992 Acta Psychiatr Scand., Vol. 86 (4): 273-282). Peripheral administration of Yohimbine causes noradrenergic mediated hyperarousal in rats as assessed by the EPM paradigm.
Rationale: The drug yohimbine is a natural product used to test a specific pathway, noradrenergic-mediated hyper-arousal. It is well established that yohimbine is an alpha2-adrenergic receptor antagonist and activates the locus coeruleus (LC) and increases noradrenergic signaling (the opposite of alpha2-adrenergic agonists like dexmedetomidine and clonidine). Increased LC activity and noradrenergic signaling makes animals anxious and agitated which can be measured by using the elevated plus maze. In the elevated plus maze, rodents were in the closed arms and explored the open arms depending on their anxiety and agitation (rats and mice normally explore their environments extensively when calm).
Animal groups: Male: Wistar rats were used in this study and were randomly divided to different experimental groups (12 animals per group).
The test drugs were procured from Sigma or Tocris. dextromethorphan from Sigma Aldrich, Cat No. D9684; latrepirdine from Sigma Aldrich, Cat No. D6196 or Tocris Cat No. 3201 diazepam and fluvoxamine Sigma Aldrich, Cat No. F2802 or Tocris, Cat No. 1033. All these test drugs were formulated in sufficient quantity in 0.9% saline except for Fluvoxamine, which was formulated in 30% ethanol in 0.9% saline.
Apparatus: Elevated Plus Maze (EPM) was used (FIG. 1). The maze consisted of two closed arms and two open arms forming a cross, with a square center platform. All visible surfaces were made of black acrylic. Each arm of the maze was placed on a support column above the floor. Antistatic black vinyl curtains used for surrounding the EPM to make an enclosure.
Study Design and Dosing: Yohimbine was administered by intraperitoneal injection (i.p.) at a dose of 2.5 mg/kg (30 minutes prior to study) to induce agitation and the effects were assessed 30 minutes after yohimbine injection by measuring the number of open arm entries and exploration time in the EPM. The test drugs fluvoxamine, dextromethorphan and latrepirdine dihydrochloride hydrate were administered through intramuscular route and, diazepam through intraperitoneal route into the hindleg thigh muscle of rats (60 minutes prior to study; 30 minutes prior to yohimbine administration). Diazepam was injected 30 minutes intraperitonially prior to the assay i.e. along with yohimbine administration. The study design is illustrated in FIG. 2 and table 5.
After the test drug administration, the rat was placed on the platform opposite a closed arm. The number of entries and the time spent in each arm were recorded during a 5 min period. The animal was considered as entered in arm when it placed its four paws into the arm.
Statistical Analysis: Analysis of variance (ANOVA) was performed on the result data. Fisher's PLSD was used for pairwise comparisons and p value≤0.05 was considered significant.

aggressive behavior = assay: Resident intruder task (Example 5); format: in vivo, Swiss albino mice; conditions: 10 mg/kg i.p., 60 min prior to trial; mean value
Procedure: Strain/Gender: Swiss albino/Male
Bilateral ovariectomy surgery was carried out in 3-4 weeks old female Swiss albino mice as per the standard methods (Alagwu and Nneli, 2005). Animals were anesthetized using Avertin (2,2,2-Tribromoethanol) at 250 mg/kg, i.p. and were laid down on the surgery table and fixed with adhesive plaster. A midline incision was made on the dorsal region below the rib and 1 cm lateral to the either side of midline, a small incision was made on fascia to isolate the adipose fat supporting the ovaries. By slowly pulling out the fat tissue, the ovary was identified and excised the following uterine horn ligation with silk sutures. Fascia was covered with sutures and similar procedure was repeated on the other side as well. Superficial skin layers were sutured and gentamicin (80 mg/kg, s.c.) was given as antibiotic and meloxicam (4 mg/kg, s.c.) as analgesic, then povidone iodine was applied on superficial skin layers. Polyethylene glycol (PEG) was applied to prevent drying of eye balls and kept for recovery period of 3 weeks (surgery was carried by a single experimenter). […]
Data obtained was compared with basal scoring by using Student's paired two tailed t-test. Duration of attack, and latency of attack between the groups was analyzed using One-Way ANOVA followed by Bonferroni's posthoc test. […]

depressive-like behavior = assay: Forced swim test in dark phase (Example 4)
Procedure: • Species: Rattus norvegicus • Strain: Sprague Dawley (SD) • Sex and Age: Male, 8-10 weeks old • Source: Hylasco Biotechnology Pvt.
Study was carried out as a staggered treatment, each treatment group divided as cohort 1, cohort 2 and cohort 3.
Swim 2 was carried out between 19:30 to 21:30. Animals were administered test compounds from 18:30 onwards in staggered manner 60 minutes before FST 2.
Forced Swim Test was carried out in Dark Phase
On Day 1, animals were subjected to forced swim test training for 15 minutes (Swim 1) and on Day 2, Swim 2 was carried out post treatment.
On day 2 animals were dosed with respective treatment 60 min prior to performing FST.
Forced swim test (Swim 2) was scored manually with no video recording
Forced swim test (FST), was used to study the depressive-like behavior in rodents. The test was carried out in transparent cylindrical glass containers measuring 46 cm in height and 20 cm in diameter.
The containers were filled with water (23-25° C.) to a depth of 30 cm.
There were 2 swim sessions, 24 h apart. The first session, Swim 1 was the pretest/training stage (15 min) and the second session, Swim 2, was the test stage (8 min).
In swim 2, first 1-minute data was excluded from analysis and rest 7 minutes data was considered. In 7 minutes, data, it was divided 5 minutes and 2 minute.
Rat was placed in the water-filled cylinder for 15 min (Swim 1). […]

Cc1ccc2c(c1)c1c(n2CCc2ccc(C)nc2)CCN(C)C1 [Latrepirdine dihydrochloride hydrate, 2,8-dimethyl-5-[2-(6-methylpyridin-3-yl)ethyl]-3,4-dihydro-1H-pyrido[4,3-b]indole]
distance traveled ([1]; 1 mg/kg i.p.): did not show any significant reduction | distance traveled ([1]; 3 mg/kg i.p.): did not show any significant reduction | distance traveled ([1]; 10 mg/kg i.p.): did not show any significant reduction | Percent increase as referred to the Vehicle level, Entries ([2]; 1 mg/kg i.m.): significant | Percent increase as referred to the Vehicle level, Time ([2]; 1 mg/kg i.m.): significant | Percent increase as referred to the Vehicle level, Entries ([2]; 3 mg/kg i.m.): significant | Percent increase as referred to the Vehicle level, Time ([2]; 3 mg/kg i.m.): significant | number of visits to and time spent into the open arms, dose dependence ([2]; yohimbine administered rats, 0.1, 0.3, 1 and 3 mg/kg i.m.): dose-dependent increase | EPM performance, i.m. compared with i.p. route ([2]; yohimbine rats, 3 mg/kg i.m. vs 3 mg/kg i.p.): comparable | EPM performance of saline-treated rats ([2]; yohimbine-free rats, 3 mg/kg i.m.): did not significantly modify | exploration time (time spent in the open arms) ([3]; 3 mg/kg i.m.): increased | number of open arm entries ([3]; 3 mg/kg i.m.): significantly increased | exploration time (time spent in the open arms) ([3]; 10 mg/kg i.m.): increased | number of open arm entries ([3]; 10 mg/kg i.m.): significantly increased | duration of attack (aggressive behavior): 36.87 s | increase in swimming time as compared to vehicle saline (depressive-like behavior; 1 mg/kg i.m.): 9.8%

COC(=O)[C@@H]1[C@H]2C[C@H]3c4[nH]c5ccccc5c4CCN3C[C@@H]2CC[C@@H]1O [yohimbine, Yohimbine]
number of visits to and time spent into the open arms ([2]; 2.5 mg/kg i.p., vehicle-treated, compared to vehicle-treated saline rats): marked significant decrease

COCCCC/C(=N\OCCN)c1ccc(C(F)(F)F)cc1 [fluvoxamine, Fluvoxamine]
reduction of noradrenergic mediated hyperarousal [3]: ineffective | exploration time (time spent in the open arms) ([3]; 10 mg/kg i.m.): no effect | number of open arm entries ([3]; 10 mg/kg i.m.): no effect

COc1ccc2c(c1)[C@]13CCCC[C@@H]1[C@H](C2)N(C)CC3 [dextromethorphan, Dextromethorphan]
reduction of noradrenergic mediated hyperarousal [3]: ineffective | exploration time (time spent in the open arms) ([3]; 10 mg/kg i.m.): no effect | number of open arm entries ([3]; 10 mg/kg i.m.): no effect

Cc1cccc([C@H](C)c2cnc[nH]2)c1C [Dexmedetomidine hydrochloride, (+) 4-(S)-[1-(2,3-dimethylphenyl)ethyl]-1H-imidazole]
distance traveled ([1]; 4 μg/kg i.p.): did not show any significant reduction | distance traveled ([1]; 10 μg/kg i.p.): did not show any significant reduction | distance traveled ([1]; 20 μg/kg i.p.): did not show any significant reduction | distance traveled ([1]; 30 μg/kg i.p.): significant reduction | increase in swimming time as compared to vehicle saline (depressive-like behavior; 1 μg/kg i.m.): ~1.6%
